Molecular target: T1, AKT1-E17K (Homo sapiens, UniProt P31749, E17K)
T1 construct: host or cells: HEK-293 (ATCC CRL-1573)
Assay: NanoBRET Target Engagement (TE) Assay
Format: cell-based
Text: The NanoBRET™ Target Engagement (TE) Intracellular Kinase Assays are based on the NanoBRET™ System (Promega Corporation), an energy transfer technique designed to measure molecular proximity in living cells. The NanoBRET™ TE Assays measure the apparent affinity of test compounds by competitive displacement of the NanoBRET™ tracer compound, which is a cell permeable molecule engineered to be reversibly bound to a NanoLuc® luciferase-kinase fusion expressed in cells. For compound screening, when a test compound binds to the selected kinase, the BRET signal is attenuated. […] All cells were evaluated for viability prior to transfection and optimization of the transfection was done prior to experimentation. […] Following transfection, cells were washed and resuspended in Opti-MEM. NanoBRET assays were performed in white, 384-well plates (Corning) at a density of […]. All example compounds were prepared as concentrated stock solutions in DMSO (Sigma-Aldrich). Compounds are dissolved in DMSO to make 10 mM stock solution. […] A Labcyte ECHO 550 compound dispenser was used to facilitate compound transfer directly to cells. Cells were equilibrated for 2 hr with energy transfer probes and example compound prior to BRET measurements. […] For target engagement analysis, the energy transfer probes were added to the cells at concentrations optimized for the target in question (AKT E17K). Following compound incubation, NanoBRET NanoGlo Substrate (Promega Cat #N157D) and Extracellular Nanoluc Inhibitor (Promega Cat #N235C) was added according to the manufacturer's recommended protocol, and luminescence was measured on Envision Reader (Perkin Elmer) Multimode Luminometer equipped with 450 nmBPfilter (donor) and 600 nmLPfilter (acceptor), using 0.5 s integration time. Milli-BRET units (mBU) are calculated by multiplying the raw BRET values by 1000. Apparent tracer affinity values (EC50) were determined using the sigmoidal dose-response (variable slope). Competitive displacement data were then plotted and data were fit to determine the EC50 value for each example compound.

T1 sequence (P31749 whole entry E17K): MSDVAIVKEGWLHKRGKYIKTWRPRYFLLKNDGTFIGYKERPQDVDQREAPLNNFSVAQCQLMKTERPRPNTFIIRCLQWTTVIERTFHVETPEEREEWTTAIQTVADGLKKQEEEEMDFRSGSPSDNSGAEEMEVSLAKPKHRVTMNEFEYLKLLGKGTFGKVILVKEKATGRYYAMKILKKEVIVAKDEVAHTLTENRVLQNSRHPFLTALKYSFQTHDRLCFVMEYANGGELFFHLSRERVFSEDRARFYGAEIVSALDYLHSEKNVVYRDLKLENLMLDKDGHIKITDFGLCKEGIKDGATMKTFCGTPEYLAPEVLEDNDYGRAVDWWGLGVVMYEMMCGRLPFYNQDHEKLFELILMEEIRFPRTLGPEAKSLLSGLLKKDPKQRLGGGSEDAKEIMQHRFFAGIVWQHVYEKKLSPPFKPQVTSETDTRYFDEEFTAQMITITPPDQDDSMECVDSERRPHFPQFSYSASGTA

| IC50 | Structure (SMILES) |
| --- | --- |
| 60 to 600 nM | N#Cc1cccc(-c2ccc3nc(-c4cccnc4N)n(-c4ccc(CN5CCN(C(=O)c6ccc(O)c(C=O)c6)CC5)cc4)c3n2)c1 [Example 34, 3-(2-(2-Aminopyridin-3-yl)-3-(4-((4-(3-formyl-4-hydroxybenzoyl)piperazin-1-yl)methyl)phenyl)-3H-imidazo[4,5-b]pyridin-5-yl)benzonitrile] |
| 60 to 600 nM | N#Cc1cccc(-c2ccc3nc(-c4cccnc4N)n(-c4ccc(CN5CCN(C(=O)c6ccc(C=O)c(O)c6)CC5)cc4)c3n2)c1 [Example 35, 3-(2-(2-Aminopyridin-3-yl)-3-(4-((4-(4-formyl-3-hydroxybenzoyl)piperazin-1-yl)methyl)phenyl)-3H-imidazo[4,5-b]pyridin-5-yl)benzonitrile] |
| > 600 nM | N#Cc1ccccc1-c1ccc2nc(-c3cccnc3N)n(-c3ccc(CN4CCN(C(=O)c5ccc(O)c(C=O)c5)CC4)cc3)c2n1 [Example 36, 2-(2-(2-aminopyridin-3-yl)-3-(4-((4-(3-formyl-4-hydroxybenzoyl)piperazin-1-yl)methyl)phenyl)-3H-imidazo[4,5-b]pyridin-5-yl)benzonitrile] |
| 60 to 600 nM | N#Cc1ccccc1-c1ccc2nc(-c3cccnc3N)n(-c3ccc(CN4CCN(C(=O)c5ccc(C=O)c(O)c5)CC4)cc3)c2n1 [Example 37, 2-(2-(2-Aminopyridin-3-yl)-3-(4-((4-(4-formyl-3-hydroxybenzoyl)piperazin-1-yl)methyl)phenyl)-3H-imidazo[4,5-b]pyridin-5-yl)benzonitrile] |
| 60 to 600 nM | N#Cc1ccc(-c2ccc3nc(-c4cccnc4N)n(-c4ccc(CN5CCN(C(=O)c6ccc(O)c(C=O)c6)CC5)cc4)c3n2)cc1 [Example 38, 4-(2-(2-Aminopyridin-3-yl)-3-(4-((4-(3-formyl-4-hydroxybenzoyl)piperazin-1-yl)methyl)phenyl)-3H-imidazo[4,5-b]pyridin-5-yl)benzonitrile] |
| 60 to 600 nM | N#Cc1ccc(-c2ccc3nc(-c4cccnc4N)n(-c4ccc(CN5CCN(C(=O)c6ccc(C=O)c(O)c6)CC5)cc4)c3n2)cc1 [Example 39, 4-(2-(2-Aminopyridin-3-yl)-3-(4-((4-(4-formyl-3-hydroxybenzoyl)piperazin-1-yl)methyl)phenyl)-3H-imidazo[4,5-b]pyridin-5-yl)benzonitrile] |
| 60 to 600 nM | Nc1ncccc1-c1nc2ccc(-c3cccc(F)c3)nc2n1-c1ccc(CN2CCN(C(=O)c3ccc(O)c(C=O)c3)CC2)cc1 [Example 40, 5-(4-(4-(2-(2-Aminopyridin-3-yl)-5-(3-fluorophenyl)-3H-imidazo[4,5-b]pyridin-3-yl)benzyl)piperazine-1-carbonyl)-2-hydroxybenzaldehyde] |
| 60 to 600 nM | Nc1ncccc1-c1nc2ccc(-c3cccc(F)c3)nc2n1-c1ccc(CN2CCN(C(=O)c3ccc(C=O)c(O)c3)CC2)cc1 [Example 41, 4-(4-(4-(2-(2-Aminopyridin-3-yl)-5-(3-fluorophenyl)-3H-imidazo[4,5-b]pyridin-3-yl)benzyl)piperazine-1-carbonyl)-2-hydroxybenzaldehyde] |
| 60 to 600 nM | Nc1ncccc1-c1nc2ccc(-c3cccc(Cl)c3)nc2n1-c1ccc(CN2CCN(C(=O)c3ccc(O)c(C=O)c3)CC2)cc1 [Example 42, 5-(4-(4-(2-(2-Aminopyridin-3-yl)-5-(3-chlorophenyl)-3H-imidazo[4,5-b]pyridin-3-yl)benzyl)piperazine-1-carbonyl)-2-hydroxybenzaldehyde] |
| 60 to 600 nM | Nc1ncccc1-c1nc2ccc(-c3cccc(Cl)c3)nc2n1-c1ccc(CN2CCN(C(=O)c3ccc(C=O)c(O)c3)CC2)cc1 [Example 43, 4-(4-(4-(2-(2-Aminopyridin-3-yl)-5-(3-chlorophenyl)-3H-imidazo[4,5-b]pyridin-3-yl)benzyl)piperazine-1-carbonyl)-2-hydroxybenzaldehyde] |
